The record followed here is US20260263470A1, “A METHOD FOR THE TREATMENT OF CHRONIC HAND ECZEMA IN PATIENTS WITH MODERATE TO SEVERE CHRONIC HAND ECZEMA” (priority 2023, published 2026).

Structures are written as SMILES. Values after ≈ are worked out from the molar mass of the structure shown.

One data set is described as follows: Plasma protein binding. Format: in vitro ADME.
The nature of data set [1]: Systemic exposure in DELTA 2: plasma concentrations of delgocitinib after cream application (LC/MS). The data set is classed as in vivo, human. As to conditions: for plasma concentration of delgocitinib (geometric mean): 2-6 hours after application of cream 20 mg/g twice daily. From the text:
(§1) Data are reported as geometric means.

Data set [2] is described as follows: Half-life following repeated topical administration of delgocitinib cream. The following applies: human, plasma, 20 mg/g. Format: in vivo.
Data set [3] deals with IL-4 release in whole-blood. The experiment in a line: in vitro IL-4 release assay in whole-blood of healthy volunteers. Format: cell-based. The following applies: Homo sapiens; whole-blood of healthy volunteers (n=4).
Description: as §1

A short description of data set [4]: Phase 1 trial, single oral doses of delgocitinib in healthy volunteers. Format: in vivo. As to conditions: human, plasma, single oral dose 1.5 mg, read-out: peak systemic exposure (geometric mean Cmax).
Description: as §1

For data set [5], the system named is adult patients with moderate-to-severe CHE. The experiment in a line: DELTA 1 and DELTA 2 together (pooled analyses and statements made for both trials). The data set is classed as in vivo, human. The method, then: In a pooled analysis of both trials, changes in EQ-5D scores from baseline to week 16 were assessed in all patients and in a post-hoc analysis of patients achieving clinical responses (defined as Hand Eczema Area and Severity Index (HECSI)-50, -75, and -90, Investigator's Global Assessment for CHE treatment success [IGA-CHE TS; clear or almost clear skin with a ≥2-step improvement from baseline] and ≥4-point improvements in Hand Eczema Symptom Diary (HESD) itch and pain scores.
DELTA 1 and DELTA 2 were phase 3 trials of identical design. […] Data were pooled from both trials and changes in DLQI scores were assessed from baseline to week 16 in all patients and in a post-hoc analysis of patients achieving clinical responses, defined as Hand Eczema Area and Severity Index (HECSI)-50, -75, and -90, Investigator's Global Assessment for CHE treatment success (IGA-CHE TS; a score of 0/1 with a ≥2-step improvement from baseline), and ≥4-point improvements in Hand Eczema Symptom Diary (HESD) itch and pain scores.
The Hand Eczema Symptom eDiary (HESD) captured patient-reported severity of itch and pain over the past 24 hours on an 11-point numeric rating scale (0=no itch/pain to 10=severe itch/pain). Changes in itch and pain from baseline were assessed daily during Week (W)1 and weekly from W1-16.

Turning to `C[C@H]1CN(C(=O)CC#N)[C@]12CCN(c1ncnc3[nH]ccc13)C2` [delgocitinib, Delgocitinib], the fraction unbound (usually the share of the substance not bound to proteins or other matrix) in “Plasma protein binding” fell in the range of 0.71 to 0.78. The “decrease of detectable absorption by week 16” value in data set [1] (DELTA 2) amounted to 48%. Further, the “plasma concentration of delgocitinib (geometric mean)” value in data set [1] (DELTA 2, Week 1) is 0.21 ng/mL; in data set [1] (DELTA 2, Week 4), 0.20 ng/mL; in data set [1] (DELTA 2, Week 16) it was 0.12 ng/mL. The “mean plasma concentration in the remaining subjects with detectable absorption” value in data set [1] (DELTA 2, week 16) was 0.11 ng/mL. Also, the steady state reached in data set [1] (given as Delta 2) was at most 8 days. In data set [1] (human, plasma, topical, 20 mg/g, given as Delta 2, day 8, read-out: area under the concentration-curve from time 0 to 12 hours (AUC0-12), geometric mean), the AUC(0-t) stood at 3.7 ng·h/mL. Further, the Cmax came to 0.46 ng/mL in data set [1] (human, plasma, topical, 20 mg/g, given as Delta 2, day 8, read-out: geometric mean maximum plasma concentration (Cmax)) and 7.2 ng/mL in data set [4]. In data set [2], the half-life (as a rule, the time in which the quantity being followed falls by half) is 1220 min. The IC50 (as a rule, the concentration that gives 50% inhibition) in data set [3] was determined as 0.0172 µg/mL (≈ 0.0554 µM). In addition, the “rates of all AEs, AEs related to study drug and AEs leading to discontinuation of study drug, versus cream vehicle” value in data set [5] (baseline to trial completion) is given as “numerically higher with cream vehicle compared to delgocitinib”. Moreover, the “onset of itch and pain reduction” value in data set [5] (pooled) is “Early onset of itch and pain reduction was observed within W1”.
